Among the test systems are OVCAR-5 ovarian; SF-268 CNS; SN12C renal; NCI/ADR-RES ovarian; SNB-19 CNS; NCI-H226 lung; PC-3 prostate; SK-MEL-5 melanoma; MDA-MB-231 breast; SK-MEL-28 melanoma.
Experiment in all cases: NCI anticancer screen, dose series, 48 h

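Cells were grown in 96-well plates and exposed to each compound for 48 hours at five concentrations; endpoints were interpolated linearly between bracketing concentrations, or set to the highest concentration if not reached. The concentration for 50% growth inhibition is given as GI50. TGI: concentration producing complete growth inhibition.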

The results in this text go back to PubChem BioAssay (NCI).

For the compound `COc1ccc(-c2nn(-c3cccc(Cl)c3)cc2-c2nc(N)[nH]c(=O)c2C#N)cc1`, the GI50 was 14.6 µM in the assay on OVCAR-5 ovarian; 5.86 µM in the assay with SF-268 CNS; 6.41 µM in the assay with SN12C renal; 3.33 µM in the assay with NCI/ADR-RES ovarian; 4.58 µM with SNB-19 CNS; 6.23 µM in the assay on NCI-H226 lung. For the same compound, the GI50 in the assay on PC-3 prostate was 6.3 µM; in the assay with SK-MEL-5 melanoma, 4.07 µM; in the assay on MDA-MB-231 breast, 3.39 µM; with SK-MEL-28 melanoma, 4.98 µM. The TGI is 51.4 µM with OVCAR-5 ovarian; 35.4 µM in the assay with SF-268 CNS; above 100 µM in the assay on SN12C renal; 15.9 µM in the assay on NCI/ADR-RES ovarian; above 100 µM in the assay on SNB-19 CNS; 70.3 µM with NCI-H226 lung. Moreover, the TGI with PC-3 prostate was above 100 µM; in the assay on SK-MEL-5 melanoma, 15.9 µM; in the assay with MDA-MB-231 breast, 53.3 µM; in the assay with SK-MEL-28 melanoma, 27.9 µM.

With `Cc1ccc2occ/c(=N\Nc3ccccc3)c2c1`, the TGI with OVCAR-5 ovarian, in the assay with SF-268 CNS, in the assay on SN12C renal, with NCI/ADR-RES ovarian, with SNB-19 CNS and in the assay with NCI-H226 lung was above 100 µM each time. The TGI in the assay on PC-3 prostate, in the assay with SK-MEL-5 melanoma, in the assay on MDA-MB-231 breast and with SK-MEL-28 melanoma was above 100 µM in each case.

Turning to `C=C1C(O)C2C(=C(C)C13CC3)C(=O)C(C)(C)C2OC` (stereo not given), the GI50 in the assay on OVCAR-5 ovarian, with SF-268 CNS, in the assay with SN12C renal, in the assay with NCI/ADR-RES ovarian, with SNB-19 CNS and with NCI-H226 lung was above 100 µM in each case. In addition, the GI50 is above 100 µM in the assay with PC-3 prostate, 50.5 µM in the assay on SK-MEL-5 melanoma, 53.4 µM in the assay on MDA-MB-231 breast and above 100 µM in the assay with SK-MEL-28 melanoma. The TGI with OVCAR-5 ovarian, in the assay on SF-268 CNS, with SN12C renal, in the assay on NCI/ADR-RES ovarian, with SNB-19 CNS and in the assay with NCI-H226 lung was above 100 µM throughout. Moreover, the TGI with PC-3 prostate, in the assay on SK-MEL-5 melanoma, with MDA-MB-231 breast and in the assay with SK-MEL-28 melanoma was above 100 µM each time.

Regarding `CC1(C)N=C(N)N=C(N)N1c1cccc(OCCOc2cccc([N+](=O)[O-])c2)c1`, the GI50 with OVCAR-5 ovarian was 1.88 µM; in the assay on SF-268 CNS, 0.535 µM; in the assay on SN12C renal, 4.04 µM; in the assay on NCI/ADR-RES ovarian, above 100 µM; with SNB-19 CNS it was 4.88 µM; in the assay with NCI-H226 lung it was 48.6 µM. The GI50 in the assay on PC-3 prostate was 0.0906 µM; with SK-MEL-5 melanoma, 4.5 µM; in the assay on MDA-MB-231 breast, 10.2 µM; with SK-MEL-28 melanoma it was 7.86 µM. The TGI with OVCAR-5 ovarian, in the assay with SF-268 CNS, in the assay on SN12C renal, in the assay with NCI/ADR-RES ovarian, in the assay with SNB-19 CNS and in the assay on NCI-H226 lung was above 100 µM each time. Also, the TGI in the assay with PC-3 prostate is above 38.5 µM; in the assay with SK-MEL-5 melanoma, 33.5 µM; in the assay on MDA-MB-231 breast it was above 100 µM; in the assay with SK-MEL-28 melanoma, above 100 µM.

On to `C=C(C)[C@@H]1CC[C@]2(C)[C@H](CC[C@@H]3[C@@H]([C@@](C)(O)CCC=C(C)C)CC[C@]32C)[C@@]1(C)CCC(=O)O`, for which the GI50 in the assay with OVCAR-5 ovarian is 17.6 µM; in the assay on SF-268 CNS it was 16.1 µM; in the assay with SN12C renal, 17.2 µM; with NCI/ADR-RES ovarian it was 20.2 µM; with SNB-19 CNS it was 18.8 µM; in the assay on NCI-H226 lung, 18.1 µM. The GI50 was 11.3 µM with PC-3 prostate, 15.2 µM in the assay on SK-MEL-5 melanoma, 16.6 µM with MDA-MB-231 breast and 16.3 µM in the assay on SK-MEL-28 melanoma. The TGI in the assay on OVCAR-5 ovarian worked out at 34.2 µM; in the assay on SF-268 CNS, 32.8 µM; in the assay with SN12C renal, 40.5 µM; with NCI/ADR-RES ovarian it was 41.3 µM; with SNB-19 CNS, 34.9 µM; with NCI-H226 lung, 37.3 µM. Further, the TGI in the assay with PC-3 prostate turned out to be 27.2 µM; with SK-MEL-5 melanoma it was 29 µM; in the assay with MDA-MB-231 breast, 33.1 µM; with SK-MEL-28 melanoma, 30.3 µM.

For the compound `C=C1C(=O)OC2C1CC(OC(C)=O)/C(C)=C/CCC1(C)OC21` (stereo not given), the TGI in the assay with OVCAR-5 ovarian, in the assay on SF-268 CNS, with SN12C renal, with NCI/ADR-RES ovarian, in the assay on SNB-19 CNS and with NCI-H226 lung was above 100 µM throughout. The TGI with PC-3 prostate, with SK-MEL-5 melanoma, in the assay with MDA-MB-231 breast and in the assay on SK-MEL-28 melanoma was above 100 µM throughout.

For `O=C(N/N=C/c1ccc(O)cc1O)c1cccnc1`, the GI50 in the assay with OVCAR-5 ovarian was 14 µM; in the assay with SF-268 CNS, 2.22 µM; in the assay on SN12C renal, 3.58 µM; in the assay with NCI/ADR-RES ovarian, 3.26 µM; in the assay with SNB-19 CNS, 5.8 µM; in the assay on NCI-H226 lung, 4.58 µM. Besides, the GI50 with PC-3 prostate is 4.14 µM; in the assay on SK-MEL-5 melanoma it was 3.3 µM; with MDA-MB-231 breast, 3.68 µM; in the assay on SK-MEL-28 melanoma, 3.59 µM. Further, the TGI was above 100 µM in the assay on OVCAR-5 ovarian; 59.4 µM with SF-268 CNS; 69 µM in the assay with SN12C renal; above 100 µM in the assay on NCI/ADR-RES ovarian; above 100 µM in the assay with SNB-19 CNS; 84.3 µM in the assay on NCI-H226 lung. Also, the TGI in the assay with PC-3 prostate is 46.9 µM; with SK-MEL-5 melanoma, 27.6 µM; in the assay on MDA-MB-231 breast it was above 100 µM; with SK-MEL-28 melanoma, 62.6 µM.

For the compound `CCOC(=O)C1=C(N)Oc2c(sc3c(C)cccc23)C1c1ccc(F)cc1` (stereo not given), the GI50 was 1.67 µM in the assay with OVCAR-5 ovarian; 1.61 µM in the assay on SF-268 CNS; 1.11 µM in the assay with SN12C renal; 0.384 µM in the assay on NCI/ADR-RES ovarian; 0.621 µM with SNB-19 CNS; 0.579 µM in the assay on NCI-H226 lung. In addition, the GI50 in the assay with PC-3 prostate was 0.496 µM; in the assay on SK-MEL-5 melanoma, 1.18 µM; in the assay on MDA-MB-231 breast, 2.37 µM; in the assay with SK-MEL-28 melanoma it was 8.71 µM. Further, the TGI in the assay with OVCAR-5 ovarian was determined as 17.6 µM; in the assay on SF-268 CNS it was 19.4 µM; with SN12C renal it was 14.5 µM; with NCI/ADR-RES ovarian, 14.5 µM; in the assay on SNB-19 CNS, 16.3 µM; in the assay on NCI-H226 lung it was 10.6 µM. Moreover, the TGI is 14.8 µM with PC-3 prostate, 8.49 µM in the assay on SK-MEL-5 melanoma, 16 µM with MDA-MB-231 breast and 22.1 µM in the assay on SK-MEL-28 melanoma.

Turning to `COc1cc(/C=C/C(=O)Oc2ccccc2)ccc1C(=O)O/C=C/c1ccccc1`, the TGI in the assay with OVCAR-5 ovarian, in the assay with SF-268 CNS, in the assay with SN12C renal, in the assay on NCI/ADR-RES ovarian, with SNB-19 CNS and with NCI-H226 lung was above 100 µM in each case. In addition, the TGI in the assay with PC-3 prostate, in the assay on SK-MEL-5 melanoma, in the assay on MDA-MB-231 breast and in the assay with SK-MEL-28 melanoma was above 100 µM each time.
